In patent publication US10952436B2, “Microbiocidal quinoline (thio)carboxamide derivatives” (SYNGENTA PARTICIPATIONS AG, priority 2017, dated 2021):

Experiments:
Fusarium culmorum [1] = assay: whole plant or invertebrate; assay type: in vivo; conditions: in Triticum aestivum, read-out: control of Fusarium culmorum
[2] = test system: Botryotinia fuckeliana (Botrytis cinerea); assay: Botryotinia fuckeliana (Botrytis cinerea)/Liquid Culture (Gray Mould); assay type: cell-based; conditions: 200 ppm, liquid culture, compared to untreated control, 3-4 days after application, read-out: control of Botryotinia fuckeliana
Fusarium culmorum [3] = assay: microbe, parasite or virus in culture; assay type: cell-based; conditions: read-out: control of Fusarium culmorum
[4] = test system: Glomerella lagenarium (Colletotrichum lagenarium); assay: Glomerella lagenarium (Colletotrichum lagenarium)/Liquid Culture (Anthracnose); assay type: cell-based; conditions: Colletotrichum orbiculare; 200 ppm; liquid culture, compared to untreated control, 3-4 days after application; read-out: control of Glomerella lagenarium
[5] = test system: Magnaporthe grisea (Pyricularia oryzae); assay: microbe, parasite or virus in culture; assay type: cell-based; conditions: read-out: control of Magnaporthe grisea
[6] = test system: Magnaporthe grisea (Pyricularia oryzae); assay: whole plant or invertebrate; assay type: in vivo; conditions: foliar, read-out: control of Magnaporthe grisea
[7] = test system: Monographella nivalis (Microdochium nivale); assay: Monographella nivalis (Microdochium nivale)/Liquid Culture (Foot Rot Cereals); assay type: cell-based; conditions: 200 ppm, liquid culture, compared to untreated control, 4-5 days after application, read-out: control of Monographella nivalis
Sclerotinia sclerotiorum = assay: Sclerotinia sclerotiorum/Liquid Culture (Cottony Rot); conditions: read-out: control of Sclerotinia sclerotiorum
Protocol: Mycelia fragments of a newly grown liquid culture of the fungus are directly mixed into nutrient broth (Vogels broth). After placing a (DMSO) solution of test compound into a microtiter plate (96-well format) the nutrient broth containing the fungal material is added. The test plates are incubated at 24° C. and the inhibition of growth is determined photometrically 3-4 days after application.

Row | Structure (SMILES) | pest or weed control at 200 ppm (Fusarium culmorum [1]) | inhibition of growth at 200 ppm [2] | inhibition of growth at 200 ppm (Fusarium culmorum [3]) | inhibition of growth at 200 ppm [4] | inhibition of growth at 200 ppm [5] | pest or weed control at 200 ppm [6] | inhibition of growth at 200 ppm [7] | inhibition of growth at 20 ppm (Sclerotinia sclerotiorum) | melting point
1 | Cc1nc2c(F)cccc2cc1NC(=O)C(Cc1ccccc1)CC(F)(F)F (stereo not shown) [Compound E-44, 2-benzyl-4,4,4-trifluoro-N-(8-fluoro-2-methyl-3-quinolyl)butanamide] | ≥ 80% | ≥ 80% | ≥ 80% | ≥ 80% | ≥ 80% | ≥ 80% | – | – | –
2 | C=C(C)CC(CC)(Cc1ccccc1)C(=O)Nc1cnc2c(F)cccc2c1 (stereo not shown) [Compound E-46, 2-benzyl-2-ethyl-N-(8-fluoro-3-quinolyl)-4-methyl-pent-4-enamide] | – | ≥ 80% | ≥ 80% | ≥ 80% | ≥ 80% | ≥ 80% | ≥ 80% | – | –
3 | CC(Cc1ccccc1)(CC(F)(F)F)C(=O)Nc1cnc2c(F)cccc2c1 (stereo not shown) [Compound E-80, 2-benzyl-4,4,4-trifluoro-N-(8-fluoro-3-quinolyl)-2-methyl-butanamide] | ≥ 80% | ≥ 80% | ≥ 80% | ≥ 80% | ≥ 80% | ≥ 80% | ≥ 80% | ≥ 80% | –
4 | C=C(C)CC(Cc1ccccc1)C(=O)Nc1cnc2c(F)cccc2c1C (stereo not shown) [Compound E-93, 2-benzyl-N-(8-fluoro-4-methyl-3-quinolyl)-4-methyl-pent-4-enamide] | – | ≥ 80% | ≥ 80% | ≥ 80% | – | ≥ 80% | ≥ 80% | – | 116 to 118 °C
5 | C=C(C)C[C@@](C)(Cc1ccccc1)C(=O)Nc1cc2cccc(F)c2nc1C [Compound F-1, (2S)-2-benzyl-N-(8-fluoro-2-methyl-3-quinolyl)-2,4-dimethyl-pent-4-enamide] | ≥ 80% | ≥ 80% | ≥ 80% | ≥ 80% | ≥ 80% | ≥ 80% | – | ≥ 80% | –
6 | C=C(C)C[C@](C)(Cc1ccccc1)C(=O)Nc1cc2cccc(F)c2nc1C [Compound F-2, (2R)-2-benzyl-N-(8-fluoro-2-methyl-3-quinolyl)-2,4-dimethyl-pent-4-enamide] | ≥ 80% | ≥ 80% | ≥ 80% | ≥ 80% | ≥ 80% | ≥ 80% | – | ≥ 80% | –
7 | Cc1c(NC(=O)[C@@](C)(Cc2ccccc2)CC(C)C)cnc2c(F)cccc12 [Compound F-4, (2R)-2-benzyl-N-(8-fluoro-4-methyl-3-quinolyl)-2,4-dimethyl-pentanamide] | ≥ 80% | ≥ 80% | ≥ 80% | ≥ 80% | – | ≥ 80% | – | – | –
8 | C=C(C)C[C@](C)(Cc1ccccc1)C(=O)Nc1cnc2c(F)cccc2c1C [Compound F-6, (2R)-2-benzyl-N-(8-fluoro-4-methyl-3-quinolyl)-2,4-dimethyl-pent-4-enamide] | ≥ 80% | ≥ 80% | ≥ 80% | ≥ 80% | ≥ 80% | ≥ 80% | ≥ 80% | ≥ 80% | –
9 | Cc1c(NC(=O)[C@](C)(Cc2ccccc2)CC(F)(F)F)cnc2c(F)cccc12 [Compound F-13, (2R)-2-benzyl-4,4,4-trifluoro-N-(8-fluoro-4-methyl-3-quinolyl)-2-methyl-butanamide] | ≥ 80% | ≥ 80% | ≥ 80% | ≥ 80% | ≥ 80% | – | ≥ 80% | ≥ 80% | 71 to 73 °C
10 | Cc1c(NC(=O)[C@@](C)(Cc2ccccc2)CC(F)(F)F)cnc2c(F)cccc12 [Compound F-14, (2S)-2-benzyl-4,4,4-trifluoro-N-(8-fluoro-4-methyl-3-quinolyl)-2-methyl-butanamide] | ≥ 80% | ≥ 80% | ≥ 80% | ≥ 80% | ≥ 80% | – | ≥ 80% | ≥ 80% | 74 to 76 °C
11 | C=C(C)C[C@@](C)(Cc1ccccc1)C(=O)Nc1cnc2c(F)cccc2c1 [Compound F-21, (2S)-2-benzyl-N-(8-fluoro-3-quinolyl)-2,4-dimethyl-pent-4-enamide] | ≥ 80% | ≥ 80% | ≥ 80% | ≥ 80% | – | ≥ 80% | ≥ 80% | – | 132 to 135 °C
